Source: patent publication US20250230193A1, “CYCLIC COMPOUND HAVING SELECTIVE KRAS INHIBITORY EFFECT ON HRAS AND NRAS” (CHUGAI SEIYAKU KABUSHIKI KAISHA, priority 2022, published 2025)

What was measured:
[1] = biological target: GDP-bound NRAS wild-type protein (Homo sapiens, UniProt P01111); assay: Binding to NRAS by surface plasmon resonance (SPR), Single Cycle Kinetics; conditions: SPR; KD ratio class
[2] = tested on: human lung cancer strain NCI-H441; assay: cells; conditions: NCI-H441, 96 h, read-out: NCI-H441 IC50 (nM)
[3] = biological target: GDP-bound HRAS wild-type protein (Homo sapiens, UniProt P01112); assay: Binding to HRAS by surface plasmon resonance (SPR), Single Cycle Kinetics; conditions: SPR; KD ratio class
Chain of GDP-bound HRAS wild-type protein (P01112 whole entry): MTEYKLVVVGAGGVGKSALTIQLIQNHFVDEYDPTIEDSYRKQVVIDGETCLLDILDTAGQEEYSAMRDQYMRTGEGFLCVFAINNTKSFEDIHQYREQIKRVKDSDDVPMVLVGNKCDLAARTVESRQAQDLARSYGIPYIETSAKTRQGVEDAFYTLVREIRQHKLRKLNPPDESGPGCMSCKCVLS

Chain of GDP-bound NRAS wild-type protein (P01111 whole entry): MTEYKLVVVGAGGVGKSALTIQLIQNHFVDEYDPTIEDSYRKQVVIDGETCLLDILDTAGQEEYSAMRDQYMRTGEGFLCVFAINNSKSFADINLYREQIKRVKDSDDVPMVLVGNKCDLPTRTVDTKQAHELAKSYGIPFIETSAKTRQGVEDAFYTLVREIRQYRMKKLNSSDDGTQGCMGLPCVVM

Compound	NRAS/KRAS (ratio of KD value for GDP-bound NRAS wild-type protein to KD value for KRAS) [1]	IC50 [2] [nM]	HRAS/KRAS (ratio of KD value for GDP-bound HRAS wild-type protein to KD value for KRAS) [3]
CCO[C@@H]1C[C@H]2C(=O)NC3(CCC3)C(=O)N(C)[C@@H](C3CCCC3)C(=O)N(C)[C@H](C(=O)N(C)C)CC(=O)N(C)[C@@H](CC3CCCC3)C(=O)N[C@@H]([C@@H](C)CC)C(=O)N(C)CC(=O)N(C)[C@H]3C/C=C\CCN(C3=O)[C@@H](CC3CCC(F)(F)CC3)C(=O)N(C)CC(=O)N[C@@H](CCc3cc(F)c(C(F)(F)F)c(F)c3)C(=O)N2C1 [PP1458]	A (a compound having 10 or more and less than 20 is denoted as A)	18.2	A (a compound having 10 or more and less than 20 is denoted as A)
CCO[C@@H]1C[C@H]2C(=O)NC3(CCCC3)C(=O)N(C)[C@@H](C3CCCC3)C(=O)N(C)[C@H](C(=O)N(C)C)CC(=O)N(C)[C@@H](CC(C)C)C(=O)N[C@@H]([C@@H](C)CC)C(=O)N(C)CC(=O)N(C)[C@H]3C/C=C\CCN(C3=O)[C@@H](CC3CCC(F)(F)CC3)C(=O)N(C)CC(=O)N[C@@H](CCc3cc(F)c(C(F)(F)F)c(F)c3)C(=O)N2C1 [PP1459]	A (a compound having 10 or more and less than 20 is denoted as A)	38.6	A (a compound having 10 or more and less than 20 is denoted as A)
CCO[C@@H]1C[C@H]2C(=O)NC3(CCC3)C(=O)N(C)[C@@H](C3CCCC3)C(=O)N(C)[C@H](C(=O)N(C)C)CC(=O)N(C)[C@@H](CC(C)(C)C)C(=O)N[C@@H]([C@@H](C)CC)C(=O)N(C)CC(=O)N(C)[C@H]3C/C=C\CCN(C3=O)[C@@H](CC3CCC(F)(F)CC3)C(=O)N(C)CC(=O)N[C@@H](CCc3cc(F)c(C(F)(F)F)c(F)c3)C(=O)N2C1 [PP1460]	A (a compound having 10 or more and less than 20 is denoted as A)	32.9	A (a compound having 10 or more and less than 20 is denoted as A)
CC[C@H](C)[C@@H]1NC(=O)[C@H](CC)N(C)C(=O)C[C@@H](C(=O)N(C)C)N(C)C(=O)[C@H](C2CCCC2)N(C)C(=O)C2(CCC2)NC(=O)[C@@H]2CCCN2C(=O)[C@H](CCc2cc(F)c(C(F)(F)F)c(F)c2)NC(=O)CN(C)C(=O)[C@H](CC2CCC(F)(F)CC2)N2CC/C=C\C[C@@H](C2=O)N(C)C(=O)CN(C)C1=O [PP1461]	A (a compound having 10 or more and less than 20 is denoted as A)	121	A (a compound having 10 or more and less than 20 is denoted as A)
CC[C@H](C)[C@@H]1NC(=O)[C@H](CC)N(C)C(=O)C[C@@H](C(=O)N(C)C)N(C)C(=O)[C@H](C2CCCC2)N(C)C(=O)C2(CCC2)NC(=O)[C@@H]2C[C@@H](C(F)(F)F)CN2C(=O)[C@H](CCc2cc(F)c(C(F)(F)F)c(F)c2)NC(=O)CN(C)C(=O)[C@H](CC2CCCCC2)N2CC/C=C\C[C@@H](C2=O)N(C)C(=O)CN(C)C1=O [PP1465]	A (a compound having 10 or more and less than 20 is denoted as A)	34.1	A (a compound having 10 or more and less than 20 is denoted as A)
CCO[C@@H]1C[C@H]2C(=O)NC3(CCC3)C(=O)N(C)[C@@H](C3CCCC3)C(=O)N(C)[C@H](C(=O)N(C)C)CC(=O)N(C)[C@@H](CC3CCC3)C(=O)N[C@@H]([C@@H](C)CC)C(=O)N(C)CC(=O)N(C)[C@H]3C/C=C\CCN(C3=O)[C@@H](CC3CCCCC3)C(=O)N(C)CC(=O)N[C@@H](CCc3cc(F)c(C(F)(F)F)c(F)c3)C(=O)N2C1 [PP1469]	A (a compound having 10 or more and less than 20 is denoted as A)	22.2	A (a compound having 10 or more and less than 20 is denoted as A)
